Patent publication US20250282799A1, “SUBSTITUTED PYRIDO[4,3-d]PYRIMIDINES AS KRAS MODULATORS” (Alterome Therapeutics, Inc., priority 2023, published 2025)

What follows are compounds tested on KRAS G12V dependent lung adenocarcinoma cell line, NCI-H441 (assay: Cellular pERK (Thr202/Tyr204) FRET/HTRF assay). Conditions: Homo sapiens, NCI-H441, cellular pERK (Thr202/Tyr204) HTRF, NCI-H441 cells.
Assay type: cell-based
How it was run: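 Read-out is a wash-free FRET sandwich immunoassay for endogenous ERK1/2 phosphorylated on Thr202/Tyr204. Signal was measured in NCI-H441 lung adenocarcinoma cells after 1 hr compound exposure at 37 °C. IC50 values come from fitted concentration-response curves.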

Row | IC50 [nM] | SMILES
1 | < 50 | C#Cc1c(F)ccc2cc(N)cc(-c3ncc4c(N5CCOC[C@H]6[C@H](F)[C@H]65)nc(OC[C@]56C/C(=C/F)CN5CCC65CC5)nc4c3C)c12 [Example 431, 5-Ethynyl-6-fluoro-4-(4-((1S,7S,8S)-8-fluoro-5-oxa-2-azabicyclo[5.1.0]octan-2-yl)-2-(((R,Z)-6′-(fluoromethylene)tetrahydrospiro[cyclopropane-1,1′-pyrrolizin]-7a′(5′H)-yl)methoxy)-8-methylpyrido[4,3-d]pyrimidin-7-yl)naphthalen-2-amine]
2 | < 50 | C#Cc1c(F)ccc2cccc(-c3ncc4c(N5CCCC[C@H]6[C@H](F)[C@H]65)nc(OC[C@]56C/C(=C/F)CN5CCC65CC5)nc4c3F)c12 [Example 402, (R,Z)-7a′-(((7-(8-Ethynyl-7-fluoronaphthalen-1-yl)-8-fluoro-4-((1S,7R,8S)-8-fluoro-2-azabicyclo[5.1.0]octan-2-yl)pyrido[4,3-d]pyrimidin-2-yl)oxy)methyl)-6′-(fluoromethylene)hexahydrospiro[cyclopropane-1,1′-pyrrolizine]]
3 | < 50 | [2H]C([2H])(Oc1nc(N2CCOC[C@@H]3[C@H]2[C@@]3([2H])F)c2cnc(-c3cccc4ccc(F)c(C#C)c34)c(F)c2n1)[C@@]12CCCN1C[C@H](F)C2 [Example 118, (1S,7S,8S)-2-(7-(8-ethynyl-7-fluoronaphthalen-1-yl)-8-fluoro-2-(((2R,7aS)-2-fluorotetrahydro-1H-pyrrolizin-7a(5H)-yl)methoxy-d2)pyrido[4,3-d]pyrimidin-4-yl)-8-fluoro-5-oxa-2-azabicyclo[5.1.0]octane-8-d]
4 | < 50 | [2H]C([2H])(Oc1nc(N2CCC=C[C@H]3[C@H](F)[C@H]32)c2cnc(-c3cc(N)cc4ccc(F)c(C#C)c34)c(F)c2n1)[C@@]12CCCN1C[C@H](F)C2 [Example 150, 5-Ethynyl-6-fluoro-4-(8-fluoro-4-((1S,7R,8S)-8-fluoro-2-azabicyclo[5.1.0]oct-5-en-2-yl)-2-(((2R,7aS)-2-fluorotetrahydro-1H-pyrrolizin-7a(5H)-yl)methoxy-d2)pyrido[4,3-d]pyrimidin-7-yl)naphthalen-2-amine]

Same assay, conditions: Homo sapiens, NCI-H441, pERK HTRF, NCI-H441 cells (KRAS G12V)

Row | IC50 [nM] | SMILES
5 | < 50 | [2H]C([2H])(Oc1nc(N2CCOC[C@H]3[C@@H](F)[C@H]32)c2cnc(-c3cc(N)cc4cc(F)c(F)c(C#C)c34)c(F)c2n1)[C@@]12CCCN1C[C@H](F)C2 [Example 30, 5-Ethynyl-6,7-difluoro-4-(8-fluoro-4-((1S,7S,8R)-8-fluoro-5-oxa-2-azabicyclo[5.1.0]octan-2-yl)-2-(((2R,7aS)-2-fluorotetrahydro-1H-pyrrolizin-7a(5H)-yl)methoxy-d2)pyrido[4,3-d]pyrimidin-7-yl)naphthalen-2-amine]
6 | < 50 | [2H]C([2H])(Oc1nc(N2CCC[C@H]3[C@H](F)[C@H]32)c2cnc(-c3cc(N)cc4cc(F)c(F)c(C#C)c34)c(F)c2n1)[C@@]12CCCN1C[C@H](F)C2 [Example 54, 5-Ethynyl-6,7-difluoro-4-(8-fluoro-4-((1S,6R,7S)-7-fluoro-2-azabicyclo[4.1.0]heptan-2-yl)-2-(((2R,7aS)-2-fluorotetrahydro-1H-pyrrolizin-7a(5H)-yl)methoxy-d2)pyrido[4,3-d]pyrimidin-7-yl)naphthalen-2-amine]
7 | 50 to 500 | [2H]C([2H])(Oc1nc(N2CCCC[C@H]3[C@H](F)[C@H]32)c2cnc(-c3cncc4ccc(F)c(Cl)c34)c(F)c2n1)[C@@]12CCCN1C[C@H](F)C2 [Example 85, 7-(5-Chloro-6-fluoroisoquinolin-4-yl)-8-fluoro-4-((1S,7R,8S)-8-fluoro-2-azabicyclo[5.1.0]octan-2-yl)-2-(((2R,7aS)-2-fluorotetrahydro-1H-pyrrolizin-7a(5H)-yl)methoxy-d2)pyrido[4,3-d]pyrimidine]
